This is an account of results in patent US20240280561A1, “COMPOSITIONS AND METHODS FOR TREATING AND/OR IDENTIFYING AN AGENT FOR TREATING INTESTINAL CANCERS” (Dana-Farber Cancer Institute, Inc., priority 2022, published 2024).

Test [1] has as its system SOX9 expression in HT-115 cells. Put plainly: SOX9 protein expression in CRC cells treated with WNT and TGF-β pathway agents (immunoblot). The class given is cell-based, human. As to conditions: CRC cells (HT-115). From the text:
AXIN2, SOX9 and […] (loading control) protein expression in HT-115 (Apc Mutant) cells treated with DMSO, rWNT3A or indicated concentrations of WNT-inhibitor ICG-001 by immunoblot (middle panel). SOX9 and β-actin (loading control) protein expression in HT-115 cells expressing GFP or dominant-negative (dn) TCF4 (right panel); S.E.=short exposure, L.E.=long exposure. […] Protein expression of SOX9 and β-actin (loading control) in HT-115 cells treated with indicated concentration of rTGF-β or TGF-β inhibitor.
Immunoblot analysis was performed as previously described (Wong et al. (2018) Nature medicine 24: 968-977). Briefly, cells were lysed in RIPA buffer supplemented with a protease inhibitor cocktail (Roche). Whole cell extracts were resolved by SDS-PAGE, transferred to PVDF membranes, and probed with indicated primary antibodies. Bound antibodies were detected with horseradish peroxidase (HRP)-conjugated secondary antibodies and chemiluminescent HRP substrate.
The following agents were used: recombinant WNT3A as a Wnt activator and ICG-001 as a Wnt pathway inhibitor, all of which were employed at indicated concentrations and durations.
To examine whether SOX9 is regulated by stem cell and differentiation cues, the impact of the WNT and BMP/TGF-β signaling pathways on SOX9 expression, respectively, was evaluated. […]

For test [2], the system named is PROM1 intronic enhancer reporter in HEK293T cells. The test can be described thus: PROM1 enhancer GFP reporter assay. The conditions noted are these: GFP reporter transiently transfected into HEK293T cells. The class given is cell-based. From the text: A 537-bp region in intron 1 of PROM1 (hg19, ch4:[…], negative strand) was identified as a putative SOX9-regulated enhancer based on V5-SOX9 and H3K27Ac CHIP data. PCR-amplified products or gene blocks (gBlocks, IDT) consisting of the putative PROM1 enhancer, a minimal promoter, eGFP, and PGK-hygromycin resistance cassette was cloned into the lentiviral LV 1-5 backbone vector using Gibson modular assembly platform (Akama-Garren et al. (2016) Sci Rep 6: 16836). Briefly, PROM1 enhancer was generated as a gBlock by adding the following primer sequencing to the 5′ and 3′ end of the 537-bp region, respectively: 5′→3′ Forward (site 1), […] and 5′→3′ Reverse, […] (site 2); the minimal promoter was PCR amplified from the 7TFP WT CDH1 reporter plasmid using the following primer sequences: 5′→3′ Forward (includes site 2), […] and 5′→3′ Reverse, AGGCCTCGGGATTcctagg[…] (includes site 3); eGFP was generated by adding the following primer sequences to the 5′ and 3′ end, respectively: 5′→3′ Forward (site 3), AAACCGCTGTTcctaggAATCCCGAGGCCT and 5′→3′ Reverse, GACCCGACATTagcgctACAGCTTAAGCGG (site 4); and PGK-hygro was PCR amplified from plenti-PGK-hygro-gateway destination vector using the following primers: 5′→3′ Forward (includes site 4), GACCCGACATTagcgct[…] […]
To investigate the precise mechanism of PROM1 activation, V5-SOX9 and H3K27Ac CHIP-seq data were analyzed. […]
On the technique in general: In a reporter assay the amount or activity of a reporter protein is the signal.

As for `O=C1[C@H](Cc2ccc(O)cc2)N2C(=O)CCN(C(=O)NCc3ccccc3)[C@H]2CN1Cc1cccc2ccccc12` [ICG-001], the SOX9 expression result in test [1] is on record as “reduced SOX9 expression”.

B1: recombinant WNT3A: recombinant WNT3A used as a Wnt activator (protein, UniProt P56704 19-352, looked up)
Protein Wnt-3a: SYPIWWSLAVGPQYSSLGSQPILCASIPGLVPKQLRFCRNYVEIMPSVAEGIKIGIQECQHQFRGRRWNCTTVHDSLAIFGPVLDKATRESAFVHAIASAGVAFAVTRSCAEGTAAICGCSSRHQGSPGKGWKWGGCSEDIEFGGMVSREFADARENRPDARSAMNRHNNEAGRQAIASHMHLKCKCHGLSGSCEVKTCWWSQPDFRAIGDFLKDKYDSASEMVVEKHRESRGWVETLRPRYTYFKVPTERDLVYYEASPNFCEPNPETGSFGTRDRTCNVSSHGIDGCDLLCCGRGHNARAERRREKCRCVFHWCCYVSCQECTRVYDVHTCK
As for B1, the “PROM1 enhancer reporter activity, stimulation” value in test [2] is listed as 3 fold.
